Experiment [1] has as its target T1, cloned human M2 receptor (human Muscarinic receptor subtype 2) (Homo sapiens, UniProt P08172).
T1 construct: purchased Perkin-Elmer RBHM2M; host or cells: Chinese hamster ovary cells (CHO) membranes
T1 sequence (P08172 1-466): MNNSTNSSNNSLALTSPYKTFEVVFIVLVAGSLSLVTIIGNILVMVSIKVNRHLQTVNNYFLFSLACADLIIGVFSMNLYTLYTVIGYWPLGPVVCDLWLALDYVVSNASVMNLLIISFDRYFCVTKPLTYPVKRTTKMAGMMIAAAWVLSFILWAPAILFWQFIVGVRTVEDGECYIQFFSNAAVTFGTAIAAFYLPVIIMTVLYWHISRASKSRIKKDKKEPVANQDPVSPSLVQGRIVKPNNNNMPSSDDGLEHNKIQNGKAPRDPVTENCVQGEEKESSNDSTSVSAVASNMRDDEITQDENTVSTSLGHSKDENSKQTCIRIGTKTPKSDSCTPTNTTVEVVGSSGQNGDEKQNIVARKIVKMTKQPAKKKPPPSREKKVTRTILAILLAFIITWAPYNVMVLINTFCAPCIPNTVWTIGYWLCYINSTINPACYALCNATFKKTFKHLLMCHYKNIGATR
Put plainly: hM2 receptor GTPγS binding. As to conditions: CHO cell membranes expressing hM2; [35S]GTPγS binding; read-out: hM2 EC50. Format: biochemical. The protocol:
hM2 Receptor GTPγS Binding
Membranes produced from Chinese hamster ovary cells (CHO) expressing the cloned human M2 receptor (human Muscarinic receptor subtype 2, gene bank access NM_000739), are obtained from Perkin-Elmer (RBHM2M). The membranes are thawed at 37° C., passed 3 times through a 23-gauge blunt-end needle, diluted in the GTPγS binding buffer (50 mM Hepes, 20 mM NaOH, 100 mM NaCl, 1 mM EDTA, 5 mM MgCl2, pH 7.4, 100 μM DTT). The EC50, IC50 and Emax of the compounds of the invention are evaluated from 10-point dose-response curves (three fold concentration range) done in 60 μl in 384-well non-specific binding surface plate (Corning). Ten microliters from the dose-response curves plate (5× concentration) are transferred to another 384 well plate containing 25 μl of the following: 5 μg of hM2 membranes, 500 μg of Flashblue beads (Perkin-Elmer) and GDP 25 μM. An additional 15 μl containing 3.3× (60,000 dpm) of GTPγ^35S (0.4 nM final) are added to the wells resulting in a total well volume of 50 μl. Basal and maximal stimulated [^35S]GTPγS binding are determined in absence and presence of 30 μM final of acetylcholine agonist. The membranes/beads mix are pre-incubated for 15 minutes at room temperature with 25 μM GDP prior to distribution in plates (12.5 μM final). The reversal of acetylcholine-induced stimulation (2 μM final) of [^35S]GTPγS binding is used to assay the antagonist properties (IC50) of the compounds. The plates are incubated for 60 minutes at room temperature then centrifuged at 400 rpm for 5 minutes. The radioactivity (cpm) is counted in a Trilux (Perkin-Elmer).
Values of EC50, IC50 and Emax are obtained using sigmoidal fits of a non-linear curve-fitting program (XLfit version 4.2.2 Excel add-in version 4.2.2 build 18 math 1Q version 2.1.2 build 18) of percent stimulated [^35S]GTPγS binding vs. log(molar ligand). All pEC50 and plC50 values are reported as arithmetic means ±standard error of mean of ‘n’ independent experiments.

Experiment [2] addresses T2, hM1 (human Muscarinic receptor subtype 1) (Homo sapiens, UniProt P11229).
T2 construct: expressed in transfected cells; host or cells: CHO cells (Chinese hamster ovary cells, ATCC)
T2 sequence (P11229 1-460): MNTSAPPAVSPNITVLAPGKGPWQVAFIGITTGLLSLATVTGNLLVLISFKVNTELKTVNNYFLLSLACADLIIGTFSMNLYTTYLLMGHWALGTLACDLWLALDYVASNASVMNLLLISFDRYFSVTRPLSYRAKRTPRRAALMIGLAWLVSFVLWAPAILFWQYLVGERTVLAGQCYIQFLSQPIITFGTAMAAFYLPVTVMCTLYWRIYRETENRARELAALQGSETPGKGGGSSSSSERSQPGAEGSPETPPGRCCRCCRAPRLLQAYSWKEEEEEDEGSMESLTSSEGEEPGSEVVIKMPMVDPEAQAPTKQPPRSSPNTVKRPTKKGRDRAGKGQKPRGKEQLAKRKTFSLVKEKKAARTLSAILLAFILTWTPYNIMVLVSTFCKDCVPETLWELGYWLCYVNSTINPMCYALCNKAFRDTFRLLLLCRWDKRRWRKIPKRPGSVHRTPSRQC
Kind of experiment: Human M1 calcium mobilization FLIPR assay. Format: cell-based. The following applies: hM1 expressed in CHO cells, intracellular Ca2+ release, read-out: hM1 EC50. The method, then:
Human M1, rat M1, human M3 and human M5 Calcium Mobilization FLIPR™ Assay
The compound activity in the present invention (EC50 or IC50) is measured using a 384 plate-based imaging assay that monitors drug induced intracellular Ca^2+ release in whole cells. Activation of hM1 (human Muscarinic receptor subtype 1, gene bank access NM_000738), rM1 (rat Muscarinic receptor subtype 1, gene bank access NM_080773), hM3 (human Muscarinic receptor subtype 3, gene bank access NM_000740NM_000740) and hM5 (human Muscarinic receptor subtype 5, gene bank access NM_0121258), receptors expressed in CHO cells (Chinese hamster ovary cells, ATCC) is quantified in a Molecular Devices FLIPR II™ instrument as an increase in fluorescent signal. Inhibition of hM3 and hM5 by compounds is determined by the decrease in fluorescent signal in response to 2 nM acetylcholine activation.
Prior to experiment, the cell culture medium is removed from the plates by inversion. […] Plates are incubated at 37° C. for 60 minutes prior to start the experiment. The incubation is terminated by washing the cells four times in assay buffer, leaving a residual 25 μl buffer per well. Cell plates are then transferred to the FLIPR, ready for compound additions.
The day of experiment, acetylcholine and compounds are diluted in assay buffer in three-fold concentration range (10 points serial dilution) for addition by FLIPR instrument. For all calcium assays, a baseline reading is taken for 10 seconds followed by the addition of 12.5 μl of compounds, resulting in a total well volume of 37.5 μl. Data is collected every second for 60 pictures and then every 6 seconds for 20 pictures prior to the addition of agonist. For hM3 and hM5, before agonist addition, a second baseline reading is taken for 10 seconds followed by the addition of 12.5 μl of agonist or buffer, producing a final volume of 50 μl. After agonist stimulation, the FLIPR continues to collect data every second for 60 pictures and then every 6 seconds for 20 pictures. The fluorescence emission is read using filter 1 (emission 510-570 nm) by the FLIPR on board CCD camera.
Calcium mobilization output data are calculated as the maximal relative fluorescence unit (RFU) minus the minimal value for both compound and agonist reading frame (except for hM1 and rM1 using only the maximal RFU). Data are analyzed using sigmoidal fits of a non-linear curve-fitting program (XLfit version 4.2.2 Excel add-in version 4.2.2 build 18 math 1Q version 2.1.2 build 18). All pEC50 and plC50 values are reported as arithmetic means ±standard error of mean of ‘n’ independent experiments.
(Calcium assays in cells follow changes in intracellular calcium, usually with a dye or a luminescent sensor.)

Some results are limits rather than exact numbers.

One may read the EC50 as the concentration giving half of the maximal effect.

For `COC(=O)N1CCC(C)(N2CCC(n3c(=O)[nH]c4ccccc43)CC2)C1` (racemic) [Example 2, methyl 3-methyl-3-(4-(2-oxo-2,3-dihydro-1H-benzo[d]imidazol-1-yl)piperidin-1-yl)pyrrolidine-1-carboxylate], the EC50 amounted to 865 nM in experiment [1] and 13 nM in experiment [2].

`CC1(N2CCC(n3c(=O)[nH]c4ccccc43)CC2)CCN(C(=O)OCCF)C1` (racemic) [Example 4, 2-fluoroethyl 3-methyl-3-(4-(2-oxo-2,3-dihydro-1H-benzo[d]imidazol-1-yl)piperidin-1-yl)pyrrolidine-1-carboxylate]: the concentration for a half-maximal effect (EC50) in experiment [1] is 1860 nM; in experiment [2], 13.5 nM.

Consider `CCOC(=O)N1CCC(C)(N2CCC(n3c(=O)[nH]c4cc(F)ccc43)CC2)C1` (single isomer, unassigned) [Example 6, ethyl 3-(4-(5-fluoro-2-oxo-2,3-dihydro-1H-benzo[d]imidazol-1-yl)piperidin-1-yl)-3-methylpyrrolidine-1-carboxylate], for which the EC50 in experiment [1] was 588 nM; in experiment [2] it was < 1.4 nM.

`CCOC(=O)N1CCC(C)(N2CCC(n3c(=O)[nH]c4cc(F)ccc43)CC2)C1` (single isomer, unassigned) [Example 7, ethyl 3-(4-(5-fluoro-2-oxo-2,3-dihydro-1H-benzo[d]imidazol-1-yl)piperidin-1-yl)-3-methylpyrrolidine-1-carboxylate]: the results for the EC50 in experiment [1] and in experiment [2] were 4500 nM and < 6.6 nM, respectively.

Consider `CCOC(=O)N1CCC(C)(N2CCC(n3c(=O)[nH]c4cc(C)ccc43)CC2)C1` (single isomer, unassigned) [Example 12, ethyl 3-methyl-3-(4-(5-methyl-2-oxo-2,3-dihydro-1H-benzo[d]imidazol-1-yl)piperidin-1-yl)pyrrolidine-1-carboxylate], for which the EC50 in experiment [1] came out at 771 nM; in experiment [2], 10.1 nM.

In the case of `Cc1ccc2c(c1)[nH]c(=O)n2C1CCN(C2(C)CCN(C(=O)OC(C)C)C2)CC1` (single isomer, unassigned) [Example 14, isopropyl 3-methyl-3-(4-(5-methyl-2-oxo-2,3-dihydro-1H-benzo[d]imidazol-1-yl)piperidin-1-yl)pyrrolidine-1-carboxylate], the EC50 in experiment [1] stood at 1500 nM; in experiment [2], 48.3 nM.

As for `Cc1ccc2c(c1)[nH]c(=O)n2C1CCN(C2(C)CCN(C(=O)OC(C)C)C2)CC1` (single isomer, unassigned) [Example 15, isopropyl 3-methyl-3-(4-(5-methyl-2-oxo-2,3-dihydro-1H-benzo[d]imidazol-1-yl)piperidin-1-yl)pyrrolidine-1-carboxylate], the results for the EC50 in experiment [1] and in experiment [2] were 2850 nM and 94.9 nM, respectively.

`CC#CCOC(=O)N1CCC(C)(N2CCC(n3c(=O)[nH]c4ccc(C)cc43)CC2)C1` (single isomer, unassigned) [Example 20, but-2-ynyl 3-methyl-3-(4-(6-methyl-2-oxo-2,3-dihydro-1H-benzo[d]imidazol-1-yl)piperidin-1-yl)pyrrolidine-1-carboxylate]: the values for the EC50 in experiment [1] and in experiment [2] were 61 nM and 14.2 nM, respectively.

For `CC#CCOC(=O)N1CCC(C)(N2CCC(n3c(=O)[nH]c4cc(C)ccc43)CC2)C1` (single isomer, unassigned) [Example 21, but-2-ynyl 3-methyl-3-(4-(5-methyl-2-oxo-2,3-dihydro-1H-benzo[d]imidazol-1-yl)piperidin-1-yl)pyrrolidine-1-carboxylate], the results for the EC50 in experiment [1] and in experiment [2] were 94 nM and 12.5 nM, respectively.

In the case of `CC#CCOC(=O)N1CCC(C)(N2CCC(n3c(=O)[nH]c4cc(F)ccc43)CC2)C1` (single isomer, unassigned) [Example 22, but-2-ynyl 3-(4-(5-fluoro-2-oxo-2,3-dihydro-1H-benzo[d]imidazol-1-yl)piperidin-1-yl)-3-methylpyrrolidine-1-carboxylate], the EC50 stood at 126 nM in experiment [1] and 2.8 nM in experiment [2].

With `COC(=O)N1CCC(C)(N2CCC(n3c(=O)[nH]c4cc(F)ccc43)CC2)C1` (single isomer, unassigned) [Example 23, methyl 3-(4-(5-fluoro-2-oxo-2,3-dihydro-1H-benzo[d]imidazol-1-yl)piperidin-1-yl)-3-methylpyrrolidine-1-carboxylate], the EC50 in experiment [1] is 668 nM; in experiment [2], 9.4 nM.

`CC1(N2CCC(n3c(=O)[nH]c4cc(F)ccc43)CC2)CCN(C(=O)OCCF)C1` (single isomer, unassigned) [Example 24, 2-fluoroethyl 3-(4-(5-fluoro-2-oxo-2,3-dihydro-1H-benzo[d]imidazol-1-yl)piperidin-1-yl)-3-methylpyrrolidine-1-carboxylate]: the EC50 in experiment [1] worked out at 1350 nM; in experiment [2], 10.4 nM.

`C#CCOC(=O)N1CCC(C)(N2CCC(n3c(=O)[nH]c4cc(F)ccc43)CC2)C1` (single isomer, unassigned) [Example 25, prop-2-ynyl 3-(4-(5-fluoro-2-oxo-2,3-dihydro-1H-benzo[d]imidazol-1-yl)piperidin-1-yl)-3-methylpyrrolidine-1-carboxylate]: the values for the EC50 in experiment [1] and in experiment [2] were 146 nM and 1.8 nM, respectively.

Values taken from patent US20090221642A1, “MUSCARINIC RECEPTOR AGONISTS, COMPOSITIONS, METHODS OF TREATMENT THEREOF, AND PROCESSES FOR PREPARATION THEREOF-176” (AstraZeneca AB, priority 2008, published 2009).
